Assay results: paper PMC4971072, “Chemically Homogenous Compounds with Antagonistic Properties at All α1-Adrenoceptor Subtypes but not β1-Adrenoceptor Attenuate Adrenaline-Induced Arrhythmia in Rats” (Frontiers in Pharmacology, 2016)
Read-outs that look alike come from different tables or passages of the source. Marks after values point to notes of the source that are not given here. One block for each molecule: values may come before it.

Tests used:
α1A-adrenoceptors = molecular target: T1, α1A-adrenoceptors (Rattus norvegicus, UniProt P43140); conditions: rat tail artery, cited from earlier work
T1 construct: the middle part of the ventral caudal artery was removed; from tissue; host or cells: isolated rat tail (ventral caudal) artery rings
T1 sequence (P43140 1-466): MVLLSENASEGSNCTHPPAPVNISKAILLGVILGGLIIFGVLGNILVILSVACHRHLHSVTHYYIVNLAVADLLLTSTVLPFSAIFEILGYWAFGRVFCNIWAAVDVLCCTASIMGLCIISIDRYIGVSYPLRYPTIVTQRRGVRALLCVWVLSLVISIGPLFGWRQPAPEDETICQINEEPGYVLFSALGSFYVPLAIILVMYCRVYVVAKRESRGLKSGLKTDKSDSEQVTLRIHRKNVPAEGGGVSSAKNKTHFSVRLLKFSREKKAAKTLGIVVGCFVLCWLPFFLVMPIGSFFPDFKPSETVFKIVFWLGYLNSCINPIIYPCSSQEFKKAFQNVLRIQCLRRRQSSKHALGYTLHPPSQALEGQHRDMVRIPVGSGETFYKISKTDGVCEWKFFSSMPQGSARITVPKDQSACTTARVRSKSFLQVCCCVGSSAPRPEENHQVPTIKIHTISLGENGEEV

α1D-adrenoreceptors = molecular target: T2, α1D-adrenoreceptors (Rattus norvegicus, UniProt P23944); conditions: rat aorta; ref Eltze (1996); cited from earlier work
T2 sequence (P23944 1-561): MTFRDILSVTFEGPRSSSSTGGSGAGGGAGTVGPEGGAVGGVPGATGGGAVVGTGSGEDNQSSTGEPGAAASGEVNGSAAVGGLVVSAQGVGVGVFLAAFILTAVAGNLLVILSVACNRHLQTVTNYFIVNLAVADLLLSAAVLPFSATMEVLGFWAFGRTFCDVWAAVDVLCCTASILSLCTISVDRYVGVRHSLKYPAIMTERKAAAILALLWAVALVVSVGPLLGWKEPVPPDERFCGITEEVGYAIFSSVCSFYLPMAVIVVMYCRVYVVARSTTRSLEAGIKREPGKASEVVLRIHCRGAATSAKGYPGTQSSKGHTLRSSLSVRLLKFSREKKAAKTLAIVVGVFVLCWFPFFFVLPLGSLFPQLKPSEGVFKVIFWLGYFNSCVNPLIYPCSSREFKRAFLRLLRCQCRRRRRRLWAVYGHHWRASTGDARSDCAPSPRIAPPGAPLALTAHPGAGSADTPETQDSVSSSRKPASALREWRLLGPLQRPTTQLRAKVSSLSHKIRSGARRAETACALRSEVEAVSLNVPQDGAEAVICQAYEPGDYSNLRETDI

α1B-adrenoceptors = molecular target: T3, α1B-adrenoceptors (Mus musculus, UniProt P97717); conditions: mouse spleen, cited from earlier work
T3 construct: The spleen was removed from male mice; from tissue; host or cells: isolated mouse spleen
T3 sequence (P97717 1-514): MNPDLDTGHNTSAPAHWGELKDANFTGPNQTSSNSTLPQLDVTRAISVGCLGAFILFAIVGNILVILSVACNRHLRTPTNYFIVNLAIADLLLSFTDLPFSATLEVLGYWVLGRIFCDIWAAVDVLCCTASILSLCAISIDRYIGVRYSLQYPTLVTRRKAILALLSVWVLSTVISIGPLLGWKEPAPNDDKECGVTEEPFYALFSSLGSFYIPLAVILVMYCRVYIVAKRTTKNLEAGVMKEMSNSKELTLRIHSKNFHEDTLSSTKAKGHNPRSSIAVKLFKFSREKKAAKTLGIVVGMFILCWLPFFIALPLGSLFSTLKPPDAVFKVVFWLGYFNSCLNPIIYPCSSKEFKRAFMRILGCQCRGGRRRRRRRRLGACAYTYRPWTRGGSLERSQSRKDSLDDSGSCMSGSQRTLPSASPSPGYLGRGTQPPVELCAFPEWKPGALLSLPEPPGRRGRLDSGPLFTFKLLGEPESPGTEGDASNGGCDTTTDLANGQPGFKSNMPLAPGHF

[1] = system: adrenaline-induced arrhythmia in rats; experiment: Prophylactic antiarrhythmic activity in adrenaline-induced arrhythmia; format: in vivo, rat
Method: The studied compounds were administered i.p. 45 min before the injection of adrenaline, calcium chloride, or barium chloride. The electrocardiogram (ECG) was recorded during the first 2 min as well as in the 5th, 10th, and 15th min after the arrhythmogen injection. […]

α1-adrenoceptor [2] = experiment: α1-adrenoceptor radioligand binding assay ([3H]-prazosin, rat cerebral cortex); conditions: read-out: Adrenergic receptors Ki α1
Method: The α1- and β1-adrenoceptor radioligand binding assay was performed on rat cerebral cortex. […] The cell pellet was resuspended in the Tris–HCl buffer and centrifuged again. Radioligand binding assays were performed in plates (MultiScreen/Millipore). […] The incubation was terminated by rapid filtration through glass fiber filters (Whatman GF/C) using a vacuum manifold (Millipore). The filters were then washed twice with the assay buffer and placed in scintillation vials with a liquid scintillation cocktail. […] All the assays were made in duplicate and the inhibitory constants (Ki) were estimated.
LO–labeled ligand concentration, KD–dissociation constant of labeled ligand

α1-adrenoceptor [3] = conditions: ref Pönicke et al. (2002); read-out: Adrenergic receptors Ki α1; cited from earlier work
α1B−adrenoceptor = system: α1B−adrenoceptor; set-up: method as in Koshimizu et al. (2004); conditions: ref Koshimizu et al. (2004); cited from earlier work
α1A−adrenoceptor subtype = system: α1A−adrenoceptor subtype; set-up: method as in Koshimizu et al. (2004); conditions: ref Koshimizu et al. (2004); cited from earlier work
[4] = system: lipid peroxidation in rat brain homogenate; experiment: Lipid peroxidation in rat brain homogenate (TBARS), antioxidant effect; format: biochemical; conditions: 10^−3 M
Method: The rat brain homogenate containing 10 mg tissue/ml was prepared in 0.9% saline. The rates of membrane lipid peroxidation were measured by the formation of thiobarbituric acid reactive substances (TBARS). Rat brain homogenates (1 ml) were incubated at 37°C for 5 min with 10 μl of a tested compound or vehicle. Lipid peroxidation was initiated by the addition of 50 μl of 0.5 mM FeCl2 and 50 μl of 2.0 mM ascorbic acid. After 30 min of incubation, the reaction was stopped by adding 0.1 ml of 0.2% butylated hydroxytoluene (BHT). Thiobarbituric acid reagent was then added and the mixture was heated for 15 min in a boiling water bath.

[5] = adrenaline 20 μg/kg i.v. alone (arrhythmia control)

Compound: COc1cc2nc(N3CCN(C(=O)c4ccco4)CC3)nc(N)c2cc1OC [Prazosin, prazosin]
pA2 ± S.E.M., α1A (α1A-adrenoceptors; ref Parés-Hipólito et al. (2006)): 8.93 ± 0.03^a
pA2 ± S.E.M., α1D (α1D-adrenoreceptors): 8.85 ± 0.09^b
pA2 ± S.E.M., α1B (α1B-adrenoceptors; ref Eltze (1996)): 9.07 ± 0.09^b

Compound: CCOc1ccccc1OCCN[C@H](C)Cc1ccc(OC)c(S(N)(=O)=O)c1 [Tamsulosin]
pA2 ± S.E.M., α1A (α1A-adrenoceptors; ref Jähnichen et al. (2004)): 10.32 ± 0.05^c
pA2 ± S.E.M., α1B (α1B-adrenoceptors; ref Eltze et al. (1999)): 8.33 ± 0.08^d

Compound: CNC[C@H](O)c1ccc(O)c(O)c1 [Adrenaline, adrenaline]
Bigeminy (%) [1, 5]: 33.3%
Blocks (%) [1, 5]: 50.0%
Bradycardia (%) [1, 5]: 66.7%

Ki (α1-adrenoceptor [2]): 18.3 nM
Compound: Cc1ccc(N(CC2=NCCN2)c2cccc(O)c2)cc1 [Phentolamine, phentolamine, reference compound]

Compound: COc1ccccc1OCCNCC(O)COc1cccc2[nH]c3ccccc3c12 (stereo not shown) [Carvedilol, carvedilol, reference compound]
ED50 ([1]; Rattus norvegicus, read-out: ED50 (confidence limits)): 0.36 mg/kg
pA2 value for α1B−adrenoceptor (α1B−adrenoceptor): 10.0
pA2 value for α1A−adrenoceptor subtype (α1A−adrenoceptor subtype): 9.0
inhibition of lipid peroxidation (in words) [4]: inhibited lipid peroxidation
% reduction of absorbance (% antioxidant activity) ([4]; TBARs at 532 nm): 89.58%
Absorbance ([4]; TBARs at 532 nm): 0.094 ± 0.002
